In assay [1] the target is T1, Procathepsin L (Mus musculus) (UniProt P06797).
T1 sequence (whole entry): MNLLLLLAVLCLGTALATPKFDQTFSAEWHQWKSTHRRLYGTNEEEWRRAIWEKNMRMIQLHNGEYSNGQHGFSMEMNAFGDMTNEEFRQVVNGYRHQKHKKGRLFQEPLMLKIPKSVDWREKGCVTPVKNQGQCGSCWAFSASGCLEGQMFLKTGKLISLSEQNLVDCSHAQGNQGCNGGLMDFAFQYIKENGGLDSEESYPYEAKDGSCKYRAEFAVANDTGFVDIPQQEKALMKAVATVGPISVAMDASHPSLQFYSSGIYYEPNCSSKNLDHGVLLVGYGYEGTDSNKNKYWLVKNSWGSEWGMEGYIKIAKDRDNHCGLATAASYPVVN
As to the kind of experiment: Binding affinity to cathepsin L in wild type mouse NIH/3T3 cells. The conditions noted are these: NIH3T3. It is filed as cell-based.

For assay [2], the target named is Cathepsin B (Mus musculus) (UniProt P10605). As to the kind of experiment: Binding affinity to cathepsin B in wild type mouse NIH/3T3 cells. In kind it is cell-based. The conditions noted are these: NIH3T3.
Sequence of Cathepsin B (Mus musculus) (P10605 80-333 limits assumed): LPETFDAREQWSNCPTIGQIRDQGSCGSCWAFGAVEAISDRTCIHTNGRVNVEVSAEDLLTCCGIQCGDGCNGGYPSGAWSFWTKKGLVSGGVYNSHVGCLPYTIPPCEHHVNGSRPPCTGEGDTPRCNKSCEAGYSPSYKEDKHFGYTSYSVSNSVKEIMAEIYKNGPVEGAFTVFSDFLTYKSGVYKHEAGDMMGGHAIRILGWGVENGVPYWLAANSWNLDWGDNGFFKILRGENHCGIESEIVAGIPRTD
The target is the same in assay [3]. Kind of assay: Binding affinity to cathepsin B in mouse spleen crude extracts at 500 nM. It is filed as tissue-based.
Assay [4] shares this target. As to the kind of experiment: Binding affinity to cathepsin B in mouse spleen crude extracts. It is filed as tissue-based.
In assay [5] the target is Cathepsin B (Homo sapiens) (UniProt P07858). As to the kind of experiment: Inhibition of human recombinant cathepsin B.
The target in assay [6] is Procathepsin L (Homo sapiens) (UniProt P07711). Kind of assay: Inhibition of human recombinant cathepsin L.
Sequence of Procathepsin L (Homo sapiens) (P07711 114-333 limits assumed): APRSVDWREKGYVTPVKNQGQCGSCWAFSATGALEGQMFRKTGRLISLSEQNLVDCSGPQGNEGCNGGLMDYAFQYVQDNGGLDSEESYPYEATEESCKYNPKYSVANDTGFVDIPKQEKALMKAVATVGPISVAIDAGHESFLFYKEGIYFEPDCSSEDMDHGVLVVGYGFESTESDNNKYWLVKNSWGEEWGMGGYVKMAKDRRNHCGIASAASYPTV
For assay [7], the target named is Cathepsin B (Homo sapiens) (UniProt P07858). Kind of assay: Binding affinity to cathepsin B in human MDA-MB-231 cell lysates. In kind it is cell-free.

The source made the active and inactive calls. The rule behind the calls is not given here.

Regarding `COc1ccc(-c2ccc3n2[B-](F)(F)[N+]2=C(C)C(CCC(=O)NCCCCCC(=O)N[C@@H](Cc4ccccc4)C(=O)N[C@@H](C)/C=C/C(C)=O)=C(C)C2=C3)cc1`, the result in assay [1], in assay [2], in assay [3] and in assay [4] was Active.

Regarding `CC(=O)/C=C/[C@H](C)NC(=O)[C@H](Cc1ccccc1)NC(=O)OCc1ccccc1`, the figures for the Activity in assay [5] and in assay [6] were 36700 M⁻¹ s⁻¹ and 1.63e+06 M⁻¹ s⁻¹, respectively.

As to `CC(=O)/C=C/[C@H](C)NC(=O)[C@H](Cc1ccccc1)NC(=O)CCOCCOCCOCCOCCNC(=O)CCCC[C@H]1SC[C@H]2NC(=O)N[C@H]21`, the outcome in assay [7] and in assay [3] was Active.
